Starred links: 1 amine or outer side, 2 acyl side, 3 side chain; linkers in the order of their positions; H or OH if unused. Positions of bridges follow the written chain, without caps; N, C: chain ends. Non-standard residues stand in square brackets, D forms with d. Residues, ends and D or L forms follow the SMILES beside them. Groups on a side chain read outwards from the residue. ξ: configuration not given here. *: point of attachment. X33 = CCCCCCCCCCCC(=O)Nc1cc(NC(=O)CCCCCCCCCCC)cc(C(=O)*)c1; X34 = CCCCCC(=O)Nc1cc(NC(=O)CCCCC)cc(C(=O)*)c1; X3 = CC(NC(=O)[C@H](N)CN)C(N[*:1])C(=O)[*:2]; ξAbu(βξ-NH2) = CC(N[*:3])C(N[*:1])C(=O)[*:2]; Phac(3-amino) = O=C(Cc1cccc(N[*:1])c1)[*:2]; Benzoyl(3-OPh) = O=C(c1cccc(Oc2ccccc2)c1)*; Benzoyl(4-tBu) = CC(C)(C)c1ccc(C(=O)*)cc1; NH(2-CF3-phenyl) = FC(F)(F)c1ccccc1N*; Pentadecanoyl = CCCCCCCCCCCCCCC(=O)*; ξAsp(βξ-Me) = CC(C(=O)O)C(N)C(=O)O; Tridecanoyl = CCCCCCCCCCCCC(=O)*; X1 = O=C(Cc1ccc(N[*:1])cc1)[*:2]; X5 = CCCCCCCCCCCCn1cc(C(=O)*)nn1; X13 = O=C(CCCCCCCCCCOc1ccccc1)*; ξAbu(3ξ-NH2) = CC(N)C(N)C(=O)O; Undecanoyl = CCCCCCCCCCC(=O)*; X9 = O=C(c1ccccc1Cc1ccccc1)*; Pip = O=C(O)[CH]1CCCCN1; ξD = NC(CC(=O)O)C(=O)O; ξPip = O=C(O)C1CCCCN1; CO = O=C([*:1])[*:2]; ξV = CC(C)C(N)C(=O)O; ξP = O=C(O)C1CCCN1; OtBu = CC(C)(C)O*
What follows are compounds tested on Staphylococcus aureus (MSSA). Settings: 24 h.
Procedure, shortened: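 Broth microdilution MIC per NCCLS M7-A6 with doubling serial dilutions, in cation-adjusted Mueller-Hinton broth supplemented with 0.625 mM calcium.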

| Structure (SMILES) | MIC |
| --- | --- |
| CCCCCCCCCCCCn1cc(C(=O)NC(CC(=O)O)C(=O)NC2C(=O)N3CCCCC3C(=O)NC(C(C)C(=O)O)C(=O)NC(CC(=O)O)C(=O)NCC(=O)NC(CC(=O)O)C(=O)NCC(=O)NC(C(C)N)C(=O)NC(C(C)C)C(=O)N3CCCC3C(=O)NC2C)nn1 (stereo not drawn) [Compound 309, 1-Dodecyl-1H-(1,2,3)-Triazole-4-Carboxyl-Amphomycin] (X5-D[ξAbu(βξ-NH2)][Pip][ξAsp(βξ-Me)]DGDG[ξAbu(3ξ-NH2)]VP; lactam 2-C; configuration not given here) | 1 µg/mL |
| CCCCCCCCCCCCCCC(=O)Nc1cccc(CC(=O)NC(CC(=O)O)C(=O)NC2C(=O)N3CCCCC3C(=O)NC(C(C)C(=O)O)C(=O)NC(CC(=O)O)C(=O)NCC(=O)NC(CC(=O)O)C(=O)NCC(=O)NC(C(C)N)C(=O)NC(C(C)C)C(=O)N3CCCC3C(=O)NC2C)c1 (stereo not drawn) [Compound 310, C15-(M-Apa)-Amphomycin] (Pentadecanoyl-[Phac(3-amino)]D[ξAbu(βξ-NH2)][Pip][ξAsp(βξ-Me)]DGDG[ξAbu(3ξ-NH2)]VP; lactam 3-C; configuration not given here) | 1 µg/mL |
| CCCCCCCCCCCCC(=O)N[C@@H](CC(=O)OC)C(=O)NC(CC(=O)O)C(=O)NC1C(=O)N2CCCCC2C(=O)NC(C(C)C(=O)O)C(=O)NC(CC(=O)O)C(=O)NCC(=O)NC(CC(=O)O)C(=O)NCC(=O)NC(C(C)N)C(=O)NC(C(C)C)C(=O)N2CCCC2C(=O)NC1C (stereo partly drawn) [Compound 311, C13-(Asp-(OMe))-Amphomycin] (Tridecanoyl-D(OMe)[ξD][ξAbu(βξ-NH2)][ξPip][ξAsp(βξ-Me)][ξD]G[ξD]G[ξAbu(3ξ-NH2)][ξV][ξP]; lactam 3-C) | 8 µg/mL |
| CCCCCCCCCCCCCCC(=O)Nc1ccc(CC(=O)NC(CC(=O)O)C(=O)NC2C(=O)N3CCCCC3C(=O)NC(C(C)C(=O)O)C(=O)NC(CC(=O)O)C(=O)NCC(=O)NC(CC(=O)O)C(=O)NCC(=O)NC(C(C)N)C(=O)NC(C(C)C)C(=O)N3CCCC3C(=O)NC2C)cc1 (stereo not drawn) [Compound 312, C15-(p-Apa)-Amphomycin] (Pentadecanoyl-[X1]D[ξAbu(βξ-NH2)][Pip][ξAsp(βξ-Me)]DGDG[ξAbu(3ξ-NH2)]VP; lactam 3-C; configuration not given here) | 1 µg/mL |
| CCCCCCCCCCCCCCC(=O)N[C@@H](CC(=O)OC)C(=O)NC(CC(=O)O)C(=O)NC1C(=O)N2CCCCC2C(=O)NC(C(C)C(=O)O)C(=O)NC(CC(=O)O)C(=O)NCC(=O)NC(CC(=O)O)C(=O)NCC(=O)NC(C(C)N)C(=O)NC(C(C)C)C(=O)N2CCCC2C(=O)NC1C (stereo partly drawn) [Compound 313, C15-(Asp-(OME))-Amphomycin] (Pentadecanoyl-D(OMe)[ξD][ξAbu(βξ-NH2)][ξPip][ξAsp(βξ-Me)][ξD]G[ξD]G[ξAbu(3ξ-NH2)][ξV][ξP]; lactam 3-C) | 0.5 to 1 µg/mL |
| CCCCCCCCCCC(=O)N[C@@H](CC(=O)OC(C)(C)C)C(=O)NC(CC(=O)O)C(=O)NC1C(=O)N2CCCCC2C(=O)NC(C(C)C(=O)O)C(=O)NC(CC(=O)O)C(=O)NCC(=O)NC(CC(=O)O)C(=O)NCC(=O)NC(C(C)N)C(=O)NC(C(C)C)C(=O)N2CCCC2C(=O)NC1C (stereo partly drawn) [Compound 314, C11-(Asp-(OtBu))-Amphomycin] (Undecanoyl-D(OtBu)[ξD][ξAbu(βξ-NH2)][ξPip][ξAsp(βξ-Me)][ξD]G[ξD]G[ξAbu(3ξ-NH2)][ξV][ξP]; lactam 3-C) | 8 µg/mL |
| CCCCCCCCCCCCC(=O)N[C@@H](CC(=O)OC(C)(C)C)C(=O)NC(CC(=O)O)C(=O)NC1C(=O)N2CCCCC2C(=O)NC(C(C)C(=O)O)C(=O)NC(CC(=O)O)C(=O)NCC(=O)NC(CC(=O)O)C(=O)NCC(=O)NC(C(C)N)C(=O)NC(C(C)C)C(=O)N2CCCC2C(=O)NC1C (stereo partly drawn) [Compound 315, C13-(Asp-(OtBu))-Amphomycin] (Tridecanoyl-D(OtBu)[ξD][ξAbu(βξ-NH2)][ξPip][ξAsp(βξ-Me)][ξD]G[ξD]G[ξAbu(3ξ-NH2)][ξV][ξP]; lactam 3-C) | 1 µg/mL |
| CCCCCCCCCCC(=O)N[C@@H](CC(=O)OC)C(=O)NC(CC(=O)O)C(=O)NC1C(=O)N2CCCCC2C(=O)NC(C(C)C(=O)O)C(=O)NC(CC(=O)O)C(=O)NCC(=O)NC(CC(=O)O)C(=O)NCC(=O)NC(C(C)N)C(=O)NC(C(C)C)C(=O)N2CCCC2C(=O)NC1C (stereo partly drawn) [Compound 316, C11-(Asp-(OMe))-Amphomycin] (Undecanoyl-D(OMe)[ξD][ξAbu(βξ-NH2)][ξPip][ξAsp(βξ-Me)][ξD]G[ξD]G[ξAbu(3ξ-NH2)][ξV][ξP]; lactam 3-C) | >64 µg/mL |
| CCCCCCCCCCCCCCC(=O)N[C@H](CC(=O)OC)C(=O)NC(CC(=O)O)C(=O)NC1C(=O)N2CCCCC2C(=O)NC(C(C)C(=O)O)C(=O)NC(CC(=O)O)C(=O)NCC(=O)NC(CC(=O)O)C(=O)NCC(=O)NC(C(C)N)C(=O)NC(C(C)C)C(=O)N2CCCC2C(=O)NC1C (stereo partly drawn) [Compound 317, C15-(Asp-(Ome))-Amphomycin] (Pentadecanoyl-[dD](OMe)[ξD][ξAbu(βξ-NH2)][ξPip][ξAsp(βξ-Me)][ξD]G[ξD]G[ξAbu(3ξ-NH2)][ξV][ξP]; lactam 3-C) | 1 µg/mL |
| CCCCCCCCCCCCCCC(=O)NC(CC(=O)O)C(=O)NC1C(=O)N2CCCCC2C(=O)NC(C(C)C(=O)O)C(=O)NC(CC(=O)O)C(=O)NCC(=O)NC(CC(=O)O)C(=O)NCC(=O)NC(C(C)NC(=O)Nc2ccccc2C(F)(F)F)C(=O)NC(C(C)C)C(=O)N2CCCC2C(=O)NC1C (stereo not drawn) [Compound 318, C15-Amphomycin-9-C(═O)—NH—(O—CF3-Phenyl)] (Pentadecanoyl-D[ξAbu(βξ-NH2)][Pip][ξAsp(βξ-Me)]DGDG[ξAbu(βξ-NH2)]([CO-NH(2-CF3-phenyl)])VP; lactam 2-C; configuration not given here) | 64 µg/mL |

More lines, now with the values ahead:

| MIC | Structure (SMILES) |
| --- | --- |
| 64 µg/mL | CCCCCC(=O)Nc1cc(NC(=O)CCCCC)cc(C(=O)NC(CC(=O)O)C(=O)NC2C(=O)N3CCCCC3C(=O)NC(C(C)C(=O)O)C(=O)NC(CC(=O)O)C(=O)NCC(=O)NC(CC(=O)O)C(=O)NCC(=O)NC(C(C)N)C(=O)NC(C(C)C)C(=O)N3CCCC3C(=O)NC2C)c1 (stereo not drawn) [Compound 319, N,N′-di-C6-(M,M-Diaminobenzoyl)-Amphomycin] (X34-D[ξAbu(βξ-NH2)][Pip][ξAsp(βξ-Me)]DGDG[ξAbu(3ξ-NH2)]VP; lactam 2-C; configuration not given here) |
| 2 µg/mL | CCCCCCCCCCCC(=O)Nc1cc(NC(=O)CCCCCCCCCCC)cc(C(=O)NC(CC(=O)O)C(=O)NC2C(=O)N3CCCCC3C(=O)NC(C(C)C(=O)O)C(=O)NC(CC(=O)O)C(=O)NCC(=O)NC(CC(=O)O)C(=O)NCC(=O)NC(C(C)N)C(=O)NC(C(C)C)C(=O)N3CCCC3C(=O)NC2C)c1 (stereo not drawn) [Compound 320, N,N′-di-C12-(M,M-Diaminobenzoyl)-Amphomycin] (X33-D[ξAbu(βξ-NH2)][Pip][ξAsp(βξ-Me)]DGDG[ξAbu(3ξ-NH2)]VP; lactam 2-C; configuration not given here) |
| >64 µg/mL | CCCCCCCCNC(=O)NCCC(=O)NC(CC(=O)O)C(=O)NC1C(=O)N2CCCCC2C(=O)NC(C(C)C(=O)O)C(=O)NC(CC(=O)O)C(=O)NCC(=O)NC(CC(=O)O)C(=O)NCC(=O)NC(C(C)N)C(=O)NC(C(C)C)C(=O)N2CCCC2C(=O)NC1C (stereo not drawn) [Compound 321, CH3—(CH2)7—NH—C(═O)-(β-Ala)-Amphomycin] |
| >64 µg/mL | CC(C)C1NC(=O)C(C(C)N)NC(=O)CNC(=O)C(CC(=O)O)NC(=O)CNC(=O)C(CC(=O)O)NC(=O)C(C(C)C(=O)O)NC(=O)C2CCCCN2C(=O)C(NC(=O)C(CC(=O)O)NC(=O)c2ccccc2Cc2ccccc2)C(C)NC(=O)C2CCCN2C1=O (stereo not drawn) [Compound 323, (2-(Phenylmethyl)-Benzoyl)-Amphomycin] (X9-D[ξAbu(βξ-NH2)][Pip][ξAsp(βξ-Me)]DGDG[ξAbu(3ξ-NH2)]VP; lactam 2-C; configuration not given here) |
| >64 µg/mL | CC(C)C1NC(=O)C(C(C)N)NC(=O)CNC(=O)C(CC(=O)O)NC(=O)CNC(=O)C(CC(=O)O)NC(=O)C(C(C)C(=O)O)NC(=O)C2CCCCN2C(=O)C(NC(=O)C(CC(=O)O)NC(=O)c2ccc(C(C)(C)C)cc2)C(C)NC(=O)C2CCCN2C1=O (stereo not drawn) [Compound 326, (4-Tbutylbenzoyl)-Amphomycin] ({Benzoyl(4-tBu)}-D[ξAbu(βξ-NH2)][Pip][ξAsp(βξ-Me)]DGDG[ξAbu(3ξ-NH2)]VP; lactam 2-C; configuration not given here) |
| >64 µg/mL | CC(C)C1NC(=O)C(C(C)N)NC(=O)CNC(=O)C(CC(=O)O)NC(=O)CNC(=O)C(CC(=O)O)NC(=O)C(C(C)C(=O)O)NC(=O)C2CCCCN2C(=O)C(NC(=O)C(CC(=O)O)NC(=O)c2cccc(Oc3ccccc3)c2)C(C)NC(=O)C2CCCN2C1=O (stereo not drawn) [Compound 327, (3-(Phenoxy)-Benzoyl)-Amphomycin] ({Benzoyl(3-OPh)}-D[ξAbu(βξ-NH2)][Pip][ξAsp(βξ-Me)]DGDG[ξAbu(3ξ-NH2)]VP; lactam 2-C; configuration not given here) |
| 2 µg/mL | CCCCCCCCCCCCCCC(=O)NC(CC(=O)O)C(=O)NC1C(=O)N2CCCCC2C(=O)NC(C(C)C(=O)O)C(=O)NC(CC(=O)O)C(=O)NCC(=O)NC(CC(=O)O)C(=O)NCC(=O)NC(C(C)NC(=O)[C@H](N)CN)C(=O)NC(C(C)C)C(=O)N2CCCC2C(=O)NC1C (stereo partly drawn) [Compound 328, C15-Amphomycin-9-(D-Dap)] (Pentadecanoyl-[ξD][ξAbu(βξ-NH2)][ξPip][ξAsp(βξ-Me)][ξD]G[ξD]G[X3][ξV][ξP]; lactam 2-C) |
| >64 µg/mL | CCCCCCCCCCCCCCC(=O)NC(C)C1NC(=O)CNC(=O)C(CC(=O)O)NC(=O)CNC(=O)C(CC(=O)O)NC(=O)C(C(C)C(=O)O)NC(=O)C2CCCCN2C(=O)C(NC(=O)C(CC(=O)O)NC(=O)CNC(=O)[C@@H](N)CCCCN)C(C)NC(=O)C2CCCN2C(=O)C(C(C)C)NC1=O (stereo partly drawn) [Compound 331, Lys-Gly-Amphomycin-9-C15] (H-KG[ξD][ξAbu(βξ-NH2)][ξPip][ξAsp(βξ-Me)][ξD]G[ξD]G[ξAbu(βξ-NH2)](Pentadecanoyl)[ξV][ξP]; lactam 4-C) |
| 1 µg/mL | CC(C)C1NC(=O)C(C(C)N)NC(=O)CNC(=O)C(CC(=O)O)NC(=O)CNC(=O)C(CC(=O)O)NC(=O)C(C(C)C(=O)O)NC(=O)C2CCCCN2C(=O)C(NC(=O)C(CC(=O)O)NC(=O)CCCCCCCCCCOc2ccccc2)C(C)NC(=O)C2CCCN2C1=O (stereo not drawn) [Compound 333, (11-(Phenoxy)Undecanoyl)-Amphomycin] (X13-D[ξAbu(βξ-NH2)][Pip][ξAsp(βξ-Me)]DGDG[ξAbu(3ξ-NH2)]VP; lactam 2-C; configuration not given here) |
